Experimental data published in patent publication US8927523B2, “Compound sea cucumber preparation and manufacturing method thereof” (Dalian Haiyantang Biology Co., Ltd., priority 2010, dated 2015).

What was measured:
[1] = system: insulin resistance HepG2 cells; assay: Glucose consumption of insulin resistance HepG2 cells (glucose oxidase method); format: cell-based, Human; settings: 30 mg/L
Method: (§1) Human liver cancer cell line HepG2 provided by Dalian Medical University is vaccinated in a DMEM culture medium which contains 10% volume fraction of fetal calf serum (supplementing penicillin, streptomycin […] respectively), and the culture medium is placed in a 5% CO2 cell culture box at 37° C. […] Incubate for 8 h in culture box in the conditions of 37° C. and 5% CO2 to form monolayer anchorage-dependent cells. Wash the cells twice with DMEM culture solution without fetal calf serum, then incubate the cells for 16 h with 5×10^−7 mol·L^−1 insulin culture solution in culture box in the conditions of 37° C. and 5% CO2. The HepG2 cells incubated for 16 h with insulin culture solution are model cells. Count the prepared cell suspension, adjust the cell concentration to 5×10^4·ml^−1, vaccinate on 96-well cell culture plate, 8-well in duplicate for each group, total amount of 200 uL for each well. The experiment is divided into 5 groups: normal control group, insulin resistance model group, compound sea cucumber preparation high and low dosage groups and metformin positive control group. Except the normal control group, each other group is incubated for 16 h after adding insulin with ultimate concentration of 5×10^−7 mol·L^−1 into culture solution so as to form insulin resistance model. […]

[2] = system: experimental diabetic mice caused by alloxan; assay: Fasting plasma glucose of experimental diabetic mice caused by alloxan; format: in vivo; settings: 200 mg/kg b.i.d. irrigating stomachs
Method: Take male, 18˜22 g Kunming variety mice, randomly take 10 mice from them as normal control group. Other mice are injected with alloxan 50 mg/kg after fasting (water is allowed) for 16 h, determine the fasting plasma glucose (FPG) fasting for 5 h after the mice are stable for 15 days, mice with FPG>10 mmol/L are high plasma glucose model mice.
10 mice for normal control group. Take 40 high plasma glucose mice, randomly divide into high plasma glucose model group, compound sea cucumber preparation high dosage (0.5 g/kg) group, compound sea cucumber preparation low dosage (0.25 g/kg) group and positive drug metformin 200 mg/kg group.
Mice of the compound sea cucumber preparation high dosage group and the compound sea cucumber preparation low dosage group are respectively treated with 0.025 g/ml and 0.0125 g/ml suspension of compound sea cucumber preparation and normal saline 0.2 mL/10 gBW by irrigating stomachs, mice of the metformin 200 mg/kg group are treated with […] metformin normal saline solution 0.2 mL/10 gBW by irrigating stomachs, while mice of the normal control group and high plasma glucose model group are treated with equal volume of normal saline by irrigating stomachs. Mice of each group are treated twice each day (b.i.d) continuously for 4 weeks.

[3] = system: insulin resistance HepG2 cells; assay: Glycerin consumption of insulin resistance HepG2 cells (GPO-POD enzyme method); format: cell-based, Human; settings: 30 mg/L
Method: as §1

[4] = system: experimental diabetic mice caused by alloxan; assay: Glucose tolerance of experimental diabetic mice caused by alloxan; format: in vivo; settings: 200 mg/kg b.i.d.
Method: Building of mice high glucose model, animal grouping and treating ways are the same as above description.
[formula] wherein, C is the plasma glucose value (mmol/L), t is the time after glucose load (h), i is the glucose value number; C0, C1, C2, C3, C4 are respectively plasma glucose value of before glucose load (0 min) and 30 min, 60 min, 120 min and 240 min after glucose load.

[5] = system: insulin resistance HepG2 cells; assay: Cell proliferation of insulin resistance HepG2 cells with MTT method; format: cell-based, Human; settings: 30 mg/L
Method: Human liver cancer cell line HepG2 provided by Dalian Medical University is vaccinated in a DMEM culture medium which contains 10% volume fraction of fetal calf serum (supplementing penicillin, streptomycin 100 U·L^−1 respectively), and the culture medium is placed in a 5% CO2 cell culture box at 37° C.

[6] = 24 h, compared with model group
[7] = vs high plasma glucose model group
[8] = 28th day, 2 g/kg glucose by abdomen injection

## CN(C)C(=N)N=C(N)N [Metformin, metformin]
[1]; [6]
  Glucose consumption increase %: 115.10%
[1]; 24 h after treating
  Glucose consumption: 2.83 ± 0.14 mmol/L
[2]; n=10
  Fasting Plasma Glucose (FPG) 7 days after treating: 18.80 ± 2.77 mmol/L
  Fasting Plasma Glucose (FPG) 14 days after treating: 24.59 ± 4.17 mmol/L
  Fasting Plasma Glucose (FPG) 21 days after treating: 21.18 ± 3.12 mmol/L
  Fasting Plasma Glucose (FPG) 28 days after treating: 20.72 ± 3.03 mmol/L
  Weight 28 days after treating: 31.76 ± 1.74 g
[2]; [7]
  FPG Reduce % 7 days after treating: 21.7%
  FPG Reduce % 14 days after treating: 17.1%
  FPG Reduce % 21 days after treating: 29.5%
  FPG Reduce % 28 days after treating: 31.3%
[3]; [6]
  Glycerin consumption increase %: 165.97%
[3]; 24 h after treating
  Glycerin consumption: 0.39 ± 0.02 mmol/L
[4]; 28th day, 0-240 min, trapezoid area method
  Area under the glucose load curve (ADC, mmol · h/L): 106.05 ± 12.0 mmol·h/L
[4]; [8]
  Plasma Glucose after glucose load 30 min: 31.68 ± 2.78 mmol/L
  Plasma Glucose after glucose load 60 min: 31.19 ± 3.42 mmol/L
  Plasma Glucose after glucose load 120 min: 27.43 ± 4.37 mmol/L
  Plasma Glucose after glucose load 240 min: 20.49 ± 2.58 mmol/L
[4]; 28th day, vs high plasma glucose model group
  AUC reduce %: 18.2%
[4]; 28th treating day, before glucose load
  Fasting Plasma Glucose (FPG, mmol/L): 20.72 ± 3.03 mmol/L
[5]
  Cell increase %: 0.28%
  Cell survival %: 100.28 ± 1.93Δ %
